Values quoted from earlier work in US20100081862A1, “Composition and method to modify sperm function and increase male gender ratio in mammals” (priority 2008, published 2010).

Columns and labels:
[1] = test system: early-staged mouse embryos; conditions: living early-staged mouse embryos, transplanted to produce normal living offspring
[2] = test system: Hexose Monophosphate Shunt (HMS); conditions: bovine oocytes

CCN(CC)c1cc2c(cc1C)Nc1ccc(N)cc1O2 [BCB, 2-methyl-3-diethylamino-7-amino phenoxazine]
toxicity of BCB and its metabolites [1]: relatively non-toxic
increase in oxidation of glucose through the HMS [2]: 15 fold
increase in glucose metabolism through glycolysis ([2]; compared with the increase through the HMS): somewhat less increase
